Measured values: patent US20250345426A1, “METHODS FOR MAKING AND USING THERAPEUTIC CELLS” (THE REGENTS OF THE UNIVERSITY OF CALIFORNIA, priority 2022, published 2025)

Test system: Raji lymphoma
Test: Raji lymphoma model in NSG mice treated with inhibitor-treated Leu16 CAR-T cells
Assay type: in vivo
Conditions: Raji i.v., two doses of inhibitor-treated Leu16 CAR-T cells, vs vehicle-treated
Description: FIG. 3A-G. Pharmacological modulation of Leu16 CAR-T cells modestly dampens tonic signaling while enhancing anti-tumor efficacy. (A) Pictorial representation of the correlation between tonic signaling-modulated rituximab CAR-T cells and in vivo anti-tumor efficacy. (B) Pictorial representation of pharmacological modulation strategy aimed to either increase or decrease Leu16 CAR tonic signaling; c-MYC (MYCi975) and SREBP (betulin) inhibition increased tonic signaling whereas mTORC1 (rapamycin) inhibition decreased tonic signaling in rituximab CAR-T cells. (C) % distribution of T-cell subtypes in CAR^+ T cells after 6 days of pharmacological modulation (left) and Tn/scm enrichment (right). The bars in FIG. 3C, right graph, represent data from, EGFRt, Leu16-28z (vehicle), Leu16-28z (MYCi975), Leu16-28z (Betulin), and Leu16-28z (Rapamycin), respectively, from left to right. (D) Activation and exhaustion marker expression by CAR^+ T cells in the absence of antigen stimulation after 6 days of pharmacological modulation. […] (F) Tumor signal (in photons/sec/cm2/sr) in individual animals as quantified by bioluminescence imaging. […]
In vivo studies. […] Tumor progression/regression was monitored with an IVIS Illumina III LT Imaging System (PerkinElmer). […]

With `C=C(C)[C@@H]1CC[C@]2(CO)CC[C@]3(C)[C@H](CC[C@@H]4[C@@]5(C)CC[C@H](O)C(C)(C)[C@@H]5CC[C@]43C)[C@@H]12` [betulin, Betulin] the “in vivo functionality: tumor control and survival” value was “prolonged tumor control and survival”.
